Source: US20150246136A1, “NOVEL BINDER-DRUG CONJUGATES (ADCs) AND USE OF SAME” (priority 2011, published 2015)
Where a name gives a salt, the structure may show the parent alone. Square brackets hold non-standard residues; d marks the D form. Peptide text beside a SMILES is read from it. * marks the point of attachment. X2 = CC(C)[C@@H](C(=O)*)N(C)CCCCCCN1C(=O)CC(SC[C@H](N)C(=O)O)C1=O; X1 = CC(C)[C@@H](C(=O)*)N(C)CCCCCC(=O)NCCCC[C@H](N)C(=O)O; Dolaproine = CO[C@@H]([C@@H]1CCCN1)[C@@H](C)C(=O)O; Dil = CC[C@H](C)[C@H](NC)[C@@H](CC(=O)O)OC; X5 = C[C@@H](N*)[C@@H](O)c1ccccc1; Oxazinan2yl(1,2) = C1CCN(*)OC1; NMeV = CN[C@H](C(=O)O)C(C)C

tested on: Caco2 cells; assay: Cell permeability, flux assay using Caco2 cells; format: in vitro ADME; details: 2 hours
Description: C-3.3 In Vitro Tests for Determining Cell Permeability
The cell permeability of a substance can be investigated by means of in vitro testing in a flux assay using Caco2 cells (M. D. Troutman and D. R. Thakker, Pharm. Res. 20(8):1210-1224 (2003)). To do so, the cells are cultured on 24-hole filter plates for 15-16 days. To determine the permeation, the respective test substance in a HEPES buffer was applied to the cells either apically (A) or basally (B) and incubated for 2 hours. After 0 h and 2 h, samples were taken from the cis and trans compartments. The samples were separated by HPLC (Agilent 1200, Biblingen, Germany) using reverse-phase columns. The HPLC system was linked to a triple quadrupole mass spectrometer API 4000 (Applied Biosystems Applera, Darmstadt, Germany) via a turbo ion spray interface. Permeability was evaluated on the basis of a Papp value which was calculated by means of the formula published by Schwab et al. (D. Schwab et al., J. Med. Chem. 46, 1716-1725 (2003)).
The permeability of B to A (Papp (B-A)) is of crucial importance for toxophores but are released intracellularly: the lower this permeability, the longer is the dwell time of the substance in the cell after intracellular release and thus also the time available for interaction with the biochemical target (here tubulin).

Row | SMILES | Papp (B-A) [×10⁻⁶ cm/s]
1 | CC[C@H](C)[C@@H]([C@@H](CC(=O)N1CCC[C@H]1[C@H](OC)[C@@H](C)C(=O)N[C@H](C)[C@@H](O)c1ccccc1)OC)N(C)C(=O)[C@@H](NC(=O)[C@@H](NC)C(C)C)C(C)C [monomethyl auristatin E (MMAE), monomethyl auristatin E, reference compound] (H-[NMeV]V[Dil][Dolaproine]-X5) | 7.3
2 | CC[C@H](C)[C@@H]([C@@H](CC(=O)N1CCC[C@H]1[C@H](OC)[C@@H](C)C(=O)N[C@@H](Cc1c[nH]c2ccccc12)C(=O)O)OC)N(C)C(=O)[C@@H](NC(=O)[C@H](C(C)C)N(C)CCCCCCN1C(=O)CC(SC[C@H](N)C(=O)O)C1=O)C(C)C (stereo partly drawn) [Example 237, N-[6-(3-{[(2R)-2-amino-2-carboxyethyl]sulfanyl}-2,5-dioxopyrrolidin-1-yl)hexyl]-N-methyl-L-valyl-N-[(3R,4S,5S)-1-{(2S)-2-[(1R,2R)-3-{[(1S)-1-carboxy-2-(1H-indol-3-yl)ethyl]amino}-1-methoxy-2-methyl-3-oxopropyl]pyrrolidin-1-yl}-3-methoxy-5-methyl-1-oxoheptan-4-yl]-N-methyl-L-valinamide] (X2-V[Dil][Dolaproine]W-OH) | 0.1
3 | CC[C@H](C)[C@@H]([C@@H](CC(=O)N1CCC[C@H]1[C@H](OC)[C@@H](C)C(=O)N[C@@H](Cc1c[nH]c2ccccc12)C(=O)N1CCCCO1)OC)N(C)C(=O)[C@@H](NC(=O)[C@H](C(C)C)N(C)CCCCCC(=O)NCCCC[C@H](N)C(=O)O)C(C)C [Example 277, N-(6-{[(5S)-5-amino-5-carboxypentyl]amino}-6-oxohexyl)-N-methyl-L-valyl-N-[(3R,4S,5S)-1-{(2S)-2-[(1R,2R)-3-{[(2S)-3-(1H-indol-3-yl)-1-(1,2-oxazinan-2-yl)-1-oxopropan-2-yl]amino}-1-methoxy-2-methyl-3-oxopropyl]pyrrolidin-1-yl}-3-methoxy-5-methyl-1-oxoheptan-4-yl]-N-methyl-L-valinamide trifluoroacetate] (X1-V[Dil][Dolaproine]W-{Oxazinan2yl(1,2)}) | 0.2
4 | CC[C@H](C)[C@@H]([C@@H](CC(=O)N1CCC[C@H]1[C@H](OC)[C@@H](C)C(=O)N[C@@H](Cc1c[nH]c2ccccc12)C(N)=O)OC)N(C)C(=O)[C@@H](NC(=O)[C@H](C(C)C)N(C)CCCC(=O)NNC(=O)CCCCCN1C(=O)CC(SC[C@H](N)C(=O)O)C1=O)C(C)C (stereo partly drawn) [Example 233, N-(4-{2-[6-(3-{[(2R)-2-amino-2-carboxyethyl]sulfanyl}-2,5-dioxopyrrolidin-1-yl)hexanoyl]hydrazino}-4-oxobutyl)-N-methyl-L-valyl-N-[(3R,4S,5S)-1-{(2S)-2-[(1R,2R)-3-{[(2S)-1-amino-3-(1H-indol-3-yl)-1-oxopropan-2-yl]amino}-1-methoxy-2-methyl-3-oxopropyl]pyrrolidin-1-yl}-3-methoxy-5-methyl-1-oxoheptan-4-yl]-N-methyl-L-valinamide] | 0.2
5 | CC[C@H](C)[C@@H]([C@@H](CC(=O)N1CCC[C@H]1[C@H](OC)[C@@H](C)C(=O)N[C@@H](Cc1ccccc1)C(=O)O)OC)N(C)C(=O)[C@@H](NC(=O)[C@@H](NC)C(C)C)C(C)C [monomethyl auristatin F (MMAF), monomethyl auristatin F, reference compound] (H-[NMeV]V[Dil][Dolaproine]F-OH) | 7.3
6 | CC[C@H](C)[C@@H]([C@@H](CC(=O)N1CCC[C@H]1[C@H](OC)[C@@H](C)C(=O)N[C@@]1(C(=O)N2CCCCO2)C[C@@H]1c1ccccc1)OC)N(C)C(=O)[C@@H](NC(=O)[C@H](C(C)C)N(C)CCCC(=O)NNC(=O)CCCCCN1C(=O)CC(SC[C@H](N)C(=O)O)C1=O)C(C)C (stereo partly drawn) [Example 235, N-(4-{2-[6-(3-{[(2R)-2-amino-2-carboxyethyl]sulfanyl}-2,5-dioxopyrrolidin-1-yl)hexanoyl]hydrazino}-4-oxobutyl)-N-methyl-L-valyl-N-[(3R,4S,5S)-3-methoxy-1-{(2S)-2-[(1R,2R)-1-methoxy-2-methyl-3-{[(1S,2R)-1-(1,2-oxazinan-2-ylcarbonyl)-2-phenylcyclopropyl]amino}-3-oxopropyl]pyrrolidin-1-yl}-5-methyl-1-oxoheptan-4-yl]-N-methyl-L-valinamide] | 0.25
7 | CC[C@H](C)[C@@H]([C@@H](CC(=O)N1CCC[C@H]1[C@H](OC)[C@@H](C)C(=O)N[C@@H](Cc1c[nH]c2ccccc12)C(N)=O)OC)N(C)C(=O)[C@@H](NC(=O)[C@H](C(C)C)N(C)CCCCCCN1C(=O)CC(SC[C@H](N)C(=O)O)C1=O)C(C)C (stereo partly drawn) [Example 236, N-[6-(3-{[(2R)-2-amino-2-carboxyethyl]sulfanyl}-2,5-dioxopyrrolidin-1-yl)hexyl]-N-methyl-L-valyl-N-[(3R,4S,5S)-1-{(2S)-2-[(1R,2R)-3-{[(2S)-1-amino-3-(1H-indol-3-yl)-1-oxopropan-2-yl]amino}-1-methoxy-2-methyl-3-oxopropyl]pyrrolidin-1-yl}-3-methoxy-5-methyl-1-oxoheptan-4-yl]-N-methyl-L-valinamide] (X2-V[Dil][Dolaproine]W-NH2) | 0.5
8 | CC[C@H](C)[C@@H]([C@@H](CC(=O)N1CCC[C@H]1[C@H](OC)[C@@H](C)C(=O)N[C@@H](Cc1c[nH]c2ccccc12)C(=O)O)OC)N(C)C(=O)[C@@H](NC(=O)[C@H](C(C)C)N(C)CCCCCC(=O)NCCCC[C@H](N)C(=O)O)C(C)C [Example 278, N-(6-{[(5S)-5-amino-5-carboxypentyl]amino}-6-oxohexyl)-N-methyl-L-valyl-N-[(3R,4S,5S)-1-{(2S)-2-[(1R,2R)-3-{[(1S)-1-carboxy-2-(1H-indol-3-yl)ethyl]amino}-1-methoxy-2-methyl-3-oxopropyl]pyrrolidin-1-yl}-3-methoxy-5-methyl-1-oxoheptan-4-yl]-N-methyl-L-valinamide] (X1-V[Dil][Dolaproine]W-OH) | 0.1
9 | CC[C@H](C)[C@@H]([C@@H](CC(=O)N1CCC[C@H]1[C@H](OC)[C@@H](C)C(=O)N[C@@H](Cc1c[nH]c2ccccc12)C(=O)NCc1ccccc1)OC)N(C)C(=O)[C@@H](NC(=O)[C@H](C(C)C)N(C)CCCC(=O)NNC(=O)CCCCCN1C(=O)CC(SC[C@H](N)C(=O)O)C1=O)C(C)C (stereo partly drawn) [Example 239, N-(4-{2-[6-(3-{[(2R)-2-amino-2-carboxyethyl]sulfanyl}-2,5-dioxopyrrolidin-1-yl)hexanoyl]hydrazino}-4-oxobutyl)-N-methyl-L-valyl-N-[(3R,4S,5S)-1-{(2S)-2-[(1R,2R)-3-{[(2S)-1-(benzylamino)-3-(1H-indol-3-yl)-1-oxopropan-2-yl]amino}-1-methoxy-2-methyl-3-oxopropyl]pyrrolidin-1-yl}-3-methoxy-5-methyl-1-oxoheptan-4-yl]-N-methyl-L-valinamide] | 0.7
10 | CC[C@H](C)[C@@H]([C@@H](CC(=O)N1CCC[C@H]1[C@H](OC)[C@@H](C)C(=O)N[C@@H](Cc1c[nH]c2ccccc12)C(=O)O)OC)N(C)C(=O)[C@@H](NC(=O)[C@H](C(C)C)N(C)CCCC(=O)NNC(=O)CCCCCN1C(=O)CC(SC[C@H](N)C(=O)O)C1=O)C(C)C (stereo partly drawn) [Example 234, N-(4-{2-[6-(3-{[(2R)-2-amino-2-carboxyethyl]sulfanyl}-2,5-dioxopyrrolidin-1-yl)hexanoyl]hydrazino}-4-oxobutyl)-N-methyl-L-valyl-N-[(3R,4S,5S)-1-{(2S)-2-[(1R,2R)-3-{[(1S)-1-carboxy-2-(1H-indol-3-yl)ethyl]amino}-1-methoxy-2-methyl-3-oxopropyl]pyrrolidin-1-yl}-3-methoxy-5-methyl-1-oxoheptan-4-yl]-N-methyl-L-valinamide] | 0.16

tested on: various carcinoma cell lines; assay: not given; details: in comparison with MMAE; cited from earlier work

Row | SMILES | antiproliferative effect
11 | CC[C@H](C)[C@@H]([C@@H](CC(=O)N1CCC[C@H]1[C@H](OC)[C@@H](C)C(=O)N[C@@H](Cc1ccccc1)C(=O)O)OC)N(C)C(=O)[C@@H](NC(=O)[C@@H](NC)C(C)C)C(C)C [MMAF, Monomethylauristatin F] (H-[NMeV]V[Dil][Dolaproine]F-OH) | only a moderate antiproliferative effect

same assay, conditions: in comparison with MMAF, various carcinoma cell lines; cited from earlier work

Row | SMILES | in vitro cytotoxicity
12 | CC[C@H](C)[C@@H]([C@@H](CC(=O)N1CCC[C@H]1[C@H](OC)[C@@H](C)C(=O)N[C@@H](Cc1ccccc1)C(=O)OC)OC)N(C)C(=O)[C@@H](NC(=O)[C@@H](NC)C(C)C)C(C)C [MMAF-OMe, Monomethylauristatin F-methylester] (H-[NMeV]V[Dil][Dolaproine]F-OMe) | greater by several orders of magnitude
